According to ChEMBL document CHEMBL4428125, “8-Substituted 1,3-dimethyltetrahydropyrazino[2,1-f]purinediones: Water-soluble adenosine receptor antagonists and monoamine oxidase B inhibitors” (Bioorg Med Chem, 2016):
Converted amounts (≈) assume the structure as drawn.

Key:
Adenosine receptor A3 = target: T1, Adenosine receptor A3 (Homo sapiens, UniProt P0DMS8); test: Displacement of [3H]PSB-11 from human A3 receptor expressed in CHO cell membrane by liquid scintillation counting method relative to control; format: cell membranes
T1 sequence (P0DMS8 whole entry): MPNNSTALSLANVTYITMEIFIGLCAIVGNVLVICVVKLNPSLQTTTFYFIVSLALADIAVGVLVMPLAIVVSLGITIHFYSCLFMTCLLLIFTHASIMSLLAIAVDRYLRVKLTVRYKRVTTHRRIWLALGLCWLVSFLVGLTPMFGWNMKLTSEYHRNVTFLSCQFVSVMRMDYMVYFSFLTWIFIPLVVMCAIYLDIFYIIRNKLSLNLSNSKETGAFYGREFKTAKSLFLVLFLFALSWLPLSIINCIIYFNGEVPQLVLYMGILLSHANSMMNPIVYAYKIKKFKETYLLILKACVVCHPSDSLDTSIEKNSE

[1] = target: T2, Amine oxidase [flavin-containing] B (Homo sapiens, UniProt P27338); test: Inhibition of recombinant human MAO-B expressed in baculovirus infected BTI insect cells at 10 uM preincubated for 30 mins followed by addition of p-tyramine as substrate measured over 45 mins by Amplex Red MAO assay relative to control; settings: 0.75 h
T2 sequence (P27338 whole entry): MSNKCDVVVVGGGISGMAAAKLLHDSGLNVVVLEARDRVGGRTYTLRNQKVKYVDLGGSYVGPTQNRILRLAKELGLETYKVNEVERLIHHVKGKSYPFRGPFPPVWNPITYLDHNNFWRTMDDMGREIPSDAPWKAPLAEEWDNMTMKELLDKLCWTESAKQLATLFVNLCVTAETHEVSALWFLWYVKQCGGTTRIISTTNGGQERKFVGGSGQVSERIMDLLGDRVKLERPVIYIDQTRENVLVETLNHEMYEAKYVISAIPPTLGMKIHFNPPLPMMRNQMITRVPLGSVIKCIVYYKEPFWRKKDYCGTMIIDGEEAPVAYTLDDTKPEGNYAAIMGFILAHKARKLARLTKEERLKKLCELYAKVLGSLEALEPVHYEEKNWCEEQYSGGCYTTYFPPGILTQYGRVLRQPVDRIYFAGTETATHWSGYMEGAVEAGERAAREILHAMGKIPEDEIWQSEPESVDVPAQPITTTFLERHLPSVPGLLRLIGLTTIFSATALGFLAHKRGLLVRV

Adenosine receptor A2a = Adenosine receptor A2a (Rattus norvegicus, UniProt P30543); test: Displacement of [3H]MSX from A2A receptor in rat brain striatum membranes measured after 30 mins by liquid scintillation counting method; format: cell membranes
[2] = target: T3, Adenosine receptor A1 (Rattus norvegicus) (UniProt P25099); test: Displacement of [3H]CCPA from A1 receptor in rat brain cortex membranes at 1.5 uM by liquid scintillation counting method; format: cell membranes
T3 sequence (whole entry): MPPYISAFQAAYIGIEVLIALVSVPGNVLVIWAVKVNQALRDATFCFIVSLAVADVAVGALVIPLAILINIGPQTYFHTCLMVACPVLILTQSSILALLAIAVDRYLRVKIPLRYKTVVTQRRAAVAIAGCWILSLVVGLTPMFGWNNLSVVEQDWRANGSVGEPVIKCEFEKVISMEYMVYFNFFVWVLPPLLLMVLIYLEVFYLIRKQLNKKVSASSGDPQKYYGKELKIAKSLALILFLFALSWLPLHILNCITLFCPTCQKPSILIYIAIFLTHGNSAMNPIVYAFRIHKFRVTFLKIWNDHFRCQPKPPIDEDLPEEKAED

Adenosine receptor A1 = target: T4, Adenosine receptor A1 (Rattus norvegicus, UniProt P25099); test: Displacement of [3H]CCPA from A1 receptor in rat brain cortex membranes by liquid scintillation counting method; format: cell membranes
T4 sequence (P25099 whole entry): T3 sequence (whole entry)

[3] = Thermodynamic solubility of the compound at pH 7.4; format: physicochemical; settings: buffer, read-out: Therm_solubility
[4] = target: T5, Adenosine receptor A2b (Homo sapiens) (UniProt P29275); test: Displacement of [3H]PSB-603 from human A2B receptor expressed in CHO cell membrane at 1 uM relative to control; format: cell membranes
T5 sequence (whole entry): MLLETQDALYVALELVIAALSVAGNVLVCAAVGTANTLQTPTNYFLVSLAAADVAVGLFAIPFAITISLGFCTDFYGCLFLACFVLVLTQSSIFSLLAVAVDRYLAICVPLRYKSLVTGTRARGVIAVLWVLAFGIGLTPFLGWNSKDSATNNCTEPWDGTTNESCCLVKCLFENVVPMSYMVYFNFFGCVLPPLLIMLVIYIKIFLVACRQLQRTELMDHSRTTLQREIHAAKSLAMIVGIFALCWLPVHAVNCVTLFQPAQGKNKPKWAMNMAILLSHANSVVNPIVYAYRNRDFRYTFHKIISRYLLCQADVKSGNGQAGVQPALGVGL

[5] = target: Adenosine receptor A2a (Rattus norvegicus) (UniProt P30543); test: Displacement of [3H]MSX from A2A receptor in rat brain striatum membranes at 1 uM measured after 30 mins by liquid scintillation counting method relative to control; format: cell membranes
[6] = target: T2, Amine oxidase [flavin-containing] B; test: Inhibition of recombinant human MAO-B expressed in baculovirus infected BTI insect cells preincubated for 30 mins followed by addition of p-tyramine as substrate measured over 45 mins by Amplex Red MAO assay
[7] = target: T6, Adenosine receptor A3 (Homo sapiens) (UniProt P0DMS8); test: Displacement of [3H]PSB-11 from human A3 receptor expressed in CHO cell membrane at 10 uM by liquid scintillation counting method relative to control relative to control; format: cell membranes
T6 sequence (whole entry): T1 sequence (P0DMS8 whole entry)

Adenosine receptor A2b = target: T7, Adenosine receptor A2b (Homo sapiens, UniProt P29275); test: Displacement of [3H]PSB-603 from human A2B receptor expressed in CHO cell membrane; format: cell membranes
T7 sequence (P29275 whole entry): T5 sequence (whole entry)

[8] = target: T8, Amine oxidase [flavin-containing] A (Homo sapiens, UniProt P21397); test: Inhibition of recombinant human MAO-A expressed in baculovirus infected BTI insect cells at 10 uM preincubated for 30 mins followed by addition of p-tyramine as substrate measured over 45 mins by Amplex Red MAO assay relative to control; settings: 0.75 h
T8 sequence (P21397 whole entry): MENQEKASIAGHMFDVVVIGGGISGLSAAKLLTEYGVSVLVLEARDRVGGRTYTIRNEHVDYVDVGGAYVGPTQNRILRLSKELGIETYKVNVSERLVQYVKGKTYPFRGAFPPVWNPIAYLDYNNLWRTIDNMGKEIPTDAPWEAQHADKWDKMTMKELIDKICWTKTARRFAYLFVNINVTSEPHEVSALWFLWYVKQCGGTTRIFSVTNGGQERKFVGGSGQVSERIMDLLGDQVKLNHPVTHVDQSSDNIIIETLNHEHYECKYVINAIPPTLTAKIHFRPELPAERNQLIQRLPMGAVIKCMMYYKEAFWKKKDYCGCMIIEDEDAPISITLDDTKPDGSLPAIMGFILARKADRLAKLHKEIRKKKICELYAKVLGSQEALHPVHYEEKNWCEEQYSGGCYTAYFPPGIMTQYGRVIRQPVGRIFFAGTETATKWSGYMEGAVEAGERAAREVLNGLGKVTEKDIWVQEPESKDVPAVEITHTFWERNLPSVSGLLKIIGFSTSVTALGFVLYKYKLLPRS

[9] = target: T8, Amine oxidase [flavin-containing] A; test: Inhibition of recombinant human MAO-A expressed in baculovirus infected BTI insect cells preincubated for 30 mins followed by addition of p-tyramine as substrate measured over 45 mins by Amplex Red MAO assay

Chain of Adenosine receptor A2a (Rattus norvegicus) (P30543 whole entry): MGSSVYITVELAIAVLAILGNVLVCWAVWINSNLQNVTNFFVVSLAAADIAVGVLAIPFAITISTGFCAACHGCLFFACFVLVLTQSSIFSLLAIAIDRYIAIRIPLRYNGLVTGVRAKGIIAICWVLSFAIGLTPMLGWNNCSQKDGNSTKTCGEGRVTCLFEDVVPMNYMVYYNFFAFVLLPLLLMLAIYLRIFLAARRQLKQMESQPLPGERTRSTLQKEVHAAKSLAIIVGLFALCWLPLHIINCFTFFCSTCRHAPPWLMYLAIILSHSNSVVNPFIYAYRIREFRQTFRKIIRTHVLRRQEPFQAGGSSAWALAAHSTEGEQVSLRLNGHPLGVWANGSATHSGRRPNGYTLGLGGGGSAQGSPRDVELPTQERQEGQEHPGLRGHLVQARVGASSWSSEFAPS
Chain of Adenosine receptor A2a (P30543 whole entry): as above

Row | SMILES | Ki (Adenosine receptor A3) [nM] | inhibition at 10 µM [1] [%] | Ki (Adenosine receptor A2a) [nM] | Activity [2] [%] | Ki (Adenosine receptor A1) [nM] | solubility thermodynamic [3] [µg/mL] | Activity [4] [%] | Activity [5] [%] | IC50 [6] [nM] | Activity [7] [%] | Ki (Adenosine receptor A2b) [nM] | inhibition at 10 µM [8] [%] | IC50 [9] [nM]
1 | Cc1cc(CN2CCn3c(nc4c3c(=O)n(C)c(=O)n4C)C2)n(C)n1 | > 10000 | -17 | > 1000 | 15 | > 1500 | 700 (≈ 2040 µM) | 8 | 14 | > 10000 | 5 | > 1000 | – | –
2 | Cn1c(=O)c2c(nc3n2CCN(CCc2ccc(O)cc2)C3)n(C)c1=O | > 10000 | 15 | 6040 | 11 | > 1500 | 1 (≈ 2.81 µM) | 8 | – | > 10000 | 35 | > 1000 | – | –
3 | Cn1c(=O)c2c(nc3n2CCN(CC#Cc2cccc(Cl)c2)C3)n(C)c1=O | > 10000 | 5 | > 1000 | 17 | > 1500 | – | 7 | 42 | > 10000 | 20 | > 1000 | 19 | > 10000
4 | COc1ccc(CCN2CCn3c(nc4c3c(=O)n(C)c(=O)n4C)C2)cc1OC | > 10000 | 13 | > 1000 | -2 | > 1500 | – | 6 | 16 | > 10000 | 43 | > 1000 | – | –
5 | Cn1c(=O)c2c(nc3n2CCN(CCCn2ccnc2)C3)n(C)c1=O | > 10000 | 2 | > 1000 | 13 | > 1500 | – | 4 | 13 | > 10000 | 11 | > 1000 | – | –
6 | Cn1c(=O)c2c(nc3n2CCN(CC#Cc2ccc(Cl)c(Cl)c2)C3)n(C)c1=O | > 10000 | 31 | > 1000 | 29 | > 1500 | – | 15 | 31 | > 10000 | 35 | > 1000 | – | –
7 | Cn1c(=O)c2c(nc3n2CCN(CCc2ccc(Cl)cc2)C3)n(C)c1=O | > 10000 | 36 | 4960 | 22 | > 1500 | 1 (≈ 2.67 µM) | 4 | – | > 10000 | 37 | > 1000 | – | –

Second part, the compound after the results:

Row | Ki (Adenosine receptor A3) [nM] | inhibition at 10 µM [1] [%] | Ki (Adenosine receptor A2a) [nM] | Activity [2] [%] | Ki (Adenosine receptor A1) [nM] | solubility thermodynamic [3] [µg/mL] | Activity [4] [%] | Activity [5] [%] | IC50 [6] [nM] | Activity [7] [%] | Ki (Adenosine receptor A2b) [nM] | inhibition at 10 µM [8] [%] | IC50 [9] [nM] | SMILES
8 | > 10000 | 7 | > 1000 | 11 | > 1500 | – | 9 | 11 | > 10000 | 8 | > 1000 | 2 | > 10000 | COc1cccc2c1CC[C@H](N1CCn3c(nc4c3c(=O)n(C)c(=O)n4C)C1)C2
9 | > 10000 | 10 | > 1000 | 17 | > 1500 | – | 5 | 31 | > 10000 | 23 | > 1000 | – | – | COc1cccc(CCN2CCn3c(nc4c3c(=O)n(C)c(=O)n4C)C2)c1
10 | > 10000 | 13 | > 1000 | 17 | > 1500 | – | 7 | 32 | > 10000 | 9 | > 1000 | – | – | COc1cccc(C#CCN2CCn3c(nc4c3c(=O)n(C)c(=O)n4C)C2)c1
11 | > 10000 | 1 | > 1000 | 5 | > 1500 | – | 8 | 30 | > 10000 | 43 | > 1000 | – | – | COc1cccc(CCN2CCn3c(nc4c3c(=O)n(C)c(=O)n4C)C2)c1OC
